Experimental findings from US20060127980A1, “Human excitatory amino acid transporter-2 gene promoter and uses thereof” (priority 2003, published 2006) are described below.

Structures are written as SMILES.

The test system of assay [1] is hEAAT2 promoter. In words: hEAAT2 promoter luciferase assay of agents in PHFA (FIG. 10). As to conditions: PHFA passage #3; 10 μM. Format: cell-based, human. The procedure: (§1) FIG. 10. Effect of various agents on hEAAT2 promoter activity on primary human fetal astrocytes (PHFA). A: ceftriaxone; B: amoxicillin; C: chloramphenicol; D: thiamphenicol; E: vancomycin; F: glycine; G: glutamate; H: DMSO; I: dibutyryl cAMP. PHFA (passage #3) were seeded at 1×10^5 cells/35-mm plate. Twenty-four h later cells were untreated (CON) or received the indicated compound at a final concentration of 10 μM. Forty-eight h later the cells were transfected with a FL pGL3/EAAT2 luciferase reporter construct (5 μg) plus a pSVβGalactosidase construct (1 μg) using the calcium phosphate precipitation method (Su et al. 2003, Proc. Natl. Acad. Sci. USA 100:1955-1960). After an additional 48 h, cell lysates were prepared and luciferase activity was determined using the Luciferase Assay System Kit (Promega, E1501) and luminescence determined using a luminometer (Turner Designs, TD20/20) (Su et al. 2003, Proc. Natl. Acad. Sci. USA 100:1955-1960). Data presented are the average of 3 independent plates±S.D. Qualitatively similar results were obtained in 2 additional experiments.
as §1, with “Identification of Agents that Modulate hEAAT2 Promoter Activity. FIGS. 10-12 show the effects” for “FIG. 10. Effect”, “in PHFA (FIG. 10), PHFA-Im (FIG. 11) and H4 glioma (FIG. 12) cells. In the studies shown in FIG. 10,” for “on primary human fetal astrocytes (PHFA). A: ceftriaxone; B: amoxicillin; C: chloramphenicol; D: thiamphenicol; E: vancomycin; F: glycine; G: glutamate; H: DMSO; I: dibutyryl cAMP.”

Assay [2] deals with hEAAT2 promoter. In words: hEAAT2 promoter luciferase assay of agents in H4 glioma cells (FIG. 12). Format: cell-based, human. As to conditions: H4 malignant glioma cells; 10 μM. Here is the method: as §1, with “12.” for “10.”, “in H4” for “on primary”, “malignant glioma cells.” for “fetal astrocytes (PHFA).”, “H4 is a rare clone of malignant glioma cells that support hEAAT2 promoter activity. H4 cells” for “PHFA (passage #3)”, “5×10^4” for “1×10^5”
as §1, with “H4, the third cell line examined, is a rare clone” for “FIG. 10. Effect”, “malignant glioma cells that support” for “various agents on”, “activity. In the studies shown in FIG. 12, H4 cells” for “activity on primary human fetal astrocytes (PHFA). A: ceftriaxone; B: amoxicillin; C: chloramphenicol; D: thiamphenicol; E: vancomycin; F: glycine; G: glutamate; H: DMSO; I: dibutyryl cAMP. PHFA (passage #3)”, “5×10^4” for “1×10^5”

Regarding `CCCC(=O)Nc1ncnc2c1ncn2[C@@H]1O[C@@H]2COP(=O)(O)O[C@H]2[C@H]1OC(=O)CCC` [dbcAMP, dibutyryl cyclic AMP], the hEAAT2 promoter activity entry in the assay with hEAAT2 promoter [1] and with hEAAT2 promoter [2] was “potent stimulators” in each case.
